Laboratory results from patent US20110118239A1, “PREPARATION AND ENANTIOMERIC SEPARATION OF 7-(3-PYRIDINYL)-1,7-DIAZASPIRO[4.4]NONANE AND NOVEL SALT FORMS OF THE RACEMATE AND ENANTIOMERS” (Targacept, Inc., priority 2008, published 2011).
Read-outs that look alike come from different tables or passages of the source.

Key:
[1] = test system: animal models of depression and anxiety; test: Validated animal models of depression and anxiety (summary statement); conditions: in vivo
nicotinic = test: Standard receptor screen at 10 μM: nicotinic; type: binding; conditions: hydrochloride salt
Experimental: (§1) Both Compound A, (R)-7-(3-pyridinyl)-1,7-diazaspiro[4.4]nonane, and Compound B, (S)-7-(3-pyridinyl)-1,7-diazaspiro[4.4]nonane, each as their hydrochloride salts, were screened, at 10 μM concentration, against a standard set of receptors. […] Thus, the two stereoisomers differentiate from one another in terms of their non-nicotinic receptor binding characteristics. This differentiation is believed to translate into a differentiation between the ability of each of (R)-7-(3-pyridinyl)-1,7-diazaspiro[4.4]nonane and (S)-7-(3-pyridinyl)-1,7-diazaspiro[4.4]nonane to treat various disease states, including, for example, the ability of Compound A to enhance desensitization of α4β2 NNRs.

A/J mice = test: Depression model, tail suspension (TS); type: in vivo; conditions: 0.1 mg/kg (p-hydroxybenzoate), 10 min test
Experimental: On the day of the test, A/J mice were brought to acclimate to the testing room for one hour. Eight animals were tested in each run. Following pretreatment with vehicle, desipramine (20 mg/kg) or Compound A, p-hydroxybenzoate (0.1, 0.3, and 1 mg/kg), a piece of transparent (Scotch) tape was attached to the tail of each mouse from about mid-tail with approximately 2 cm of tape past the end of the tail. The mice were then placed in the tail suspension chambers (white polyvinylchloride cubicles measuring 33×33×31.75 cm; Med Associates Inc., St Albans, Vt.). The mice were suspended from the hook of the TS force transducer via the tail tape. The force transducer transmitted the movements of the mouse to a recording device connected to a computer. Immobility time, struggle time, and intensity were automatically recorded for each min during the 10 min test period. Upon completion of the TS test, the mice were returned to their home cage and then to the animal colony. The TS chambers were cleaned between sessions. Data were analyzed by repeated measures and one-way analysis of variance (ANOVA) followed by Fisher PLSD post-hoc comparisons. An effect was considered significant if p<0.05.

[2] = Single rising dose (SRD) study of Compound C, plasma pharmacokinetics of racemate and enantiomers; type: in vivo; conditions: for t1/2 (mean) / half-life / Cmax / Tmax / AUC(0-inf): plasma; for t1/2 (mean): Table 3; for half-life / Cmax / Tmax / AUC(0-inf): human; for AUC(0-inf): read-out: AUCinf (mean); for share of total exposure (Cmax and AUCinf) compared to the racemate, Compound C: oral administration of Compound C
Experimental: A single, rising dose (SRD) study was performed with Compound C (the racemate). Plasma samples were analyzed for the content of the two enantiomers, Compound A (substantially pure R), Compound B (substantially pure S). Three dose groups (Compound C) were analyzed, 50, 100, and 400 mg, and four subjects were randomly selected from the 6 subjects tested to receive active treatment in each cohort examined in the SRD study.

rats = test: Seizure/convulsion induction after acute dose, rats; type: in vivo
Experimental: For example, preclinically, Compound C induced seizures following acute doses:
Likewise, Compound B induced convulsion in 1/6 male rats following an acute oral dose of 300 mg/kg.
In fact, the effect of Compound A was not statistically different from the vehicle control.

Rat α7 = Rat α7 (Rattus norvegicus, UniProt Q05941); test: Binding to rat α7 NNR (Ki); conditions: read-out: Rat α7 Ki
Experimental: (§2) Binding and function of the compounds to relevant receptor sites was determined in accordance with the techniques described in PCT WO 2008/057938. Inhibition constants (Ki values), reported in nM, were calculated from the IC50 values using the method of Cheng et al., Biochem. Pharmacol. 22: 3099 (1973). […] Thus, the compounds of the present invention are selective modulators of the α4β2 NNR subtype.

histamine H1 = histamine H1 (Homo sapiens, UniProt P35367); test: Standard receptor screen at 10 μM: histamine H1; type: binding; conditions: hydrochloride salt, read-out: inhibition at histamine H1 receptors
Experimental: as §1

Human Ganglion = Human Ganglion (Homo sapiens, UniProt P30926+P32297); test: Function at human ganglion subtype, single point 100 μM; type: cell-based
Experimental: as §2

Rat α4β2 = Rat α4β2 (Rattus norvegicus, UniProt P09483+P12390); test: Binding to rat α4β2 NNR (Ki); conditions: read-out: Rat α4β2 Ki
Experimental: as §2

human α4β2 NNRs = biological target: T1, human α4β2 NNRs (Homo sapiens, UniProt P17787+P43681); test: Function at human α4β2 NNRs, SH-EP1/human a4b2 cells, FLIPR calcium; type: cell-based
T1 construct: expressed in transfected cells; host or cells: SH-EP1
Experimental: as §2
After the loading period, plates were equilibrated to room temperature and the cells exposed to the test article ([…]) or nicotine or buffer alone on a FLIPR (Molecular Devices). Fluorescence (at 485 nm) was monitored throughout the experiment. The test article change in fluorescence was compared to both a positive control (10 μM nicotine) and a negative control (buffer alone) to determine the percent response relative to that of nicotine.

Human Muscle = Human Muscle (Homo sapiens, UniProt P02708+P07510+Q07001); test: Function at human muscle subtype, single point 100 μM; type: cell-based
Experimental: as §2

rat = test: Anxiety model, elevated plus maze (EPM); type: in vivo; conditions: 0.02, 0.06, and 0.21 mg/kg i.p. 30 minutes before the test, FIG. 1
Source text: The method, which detects anxiolytic activity, follows that described by Handley S. L. and Mithani S., Effects of alpha-adrenoceptor agonists and antagonists in a maze-exploration model of fear-motivated behaviour, Naunyn-Schmied. Arch. Pharmacol., 327, 1-5, 1984.
Rodents avoid open spaces (the open arms of an elevated plus-maze). Anxiolytics increase exploratory activity in the open arms. The maze consisted of 4 arms of equal length and width arranged in the form of a plus sign (+). Two opposite arms were enclosed by walls (closed arms). The two other arms had no walls (open arms). The maze was raised above the floor. A rat was placed in the centre of the plus-maze and left to explore for 5 minutes. The number of entries into the open and closed arms and the time spent in the open arms were recorded.
Ten (10) rats were studied per group. The test was performed blind. Compound A was evaluated at 0.02, 0.06, and 0.21 mg/kg, administered i.p. 30 minutes before the test, and compared with a vehicle control group. Clobazam, administered under the same experimental conditions, was used as reference substance. The experiment therefore included […].
Data were analyzed by comparing the treated groups with the control group using unpaired tests.

Human α4β2 = Human α4β2 (Homo sapiens, UniProt P17787+P43681); test: Binding to human α4β2 NNR (Ki); conditions: read-out: Human α4β2 Ki
Experimental: as §2

[3] = test system: non-selective peripheral muscarinic; test: Standard receptor screen at 10 μM: non-selective peripheral muscarinic; type: binding; conditions: hydrochloride salt
Experimental: as §1

histamine H3 = histamine H3 (Homo sapiens, UniProt Q9Y5N1); test: Standard receptor screen at 10 μM: histamine H3; type: binding; conditions: hydrochloride salt, read-out: inhibition at histamine H3 receptors
Experimental: as §1

muscarinic M1 = biological target: T2, muscarinic M1 (Homo sapiens, UniProt P11229); test: Standard receptor screen at 10 μM: muscarinic M1; type: binding; conditions: hydrochloride salt, read-out: inhibition at muscarinic M1 receptors
T2 sequence (P11229 1-460): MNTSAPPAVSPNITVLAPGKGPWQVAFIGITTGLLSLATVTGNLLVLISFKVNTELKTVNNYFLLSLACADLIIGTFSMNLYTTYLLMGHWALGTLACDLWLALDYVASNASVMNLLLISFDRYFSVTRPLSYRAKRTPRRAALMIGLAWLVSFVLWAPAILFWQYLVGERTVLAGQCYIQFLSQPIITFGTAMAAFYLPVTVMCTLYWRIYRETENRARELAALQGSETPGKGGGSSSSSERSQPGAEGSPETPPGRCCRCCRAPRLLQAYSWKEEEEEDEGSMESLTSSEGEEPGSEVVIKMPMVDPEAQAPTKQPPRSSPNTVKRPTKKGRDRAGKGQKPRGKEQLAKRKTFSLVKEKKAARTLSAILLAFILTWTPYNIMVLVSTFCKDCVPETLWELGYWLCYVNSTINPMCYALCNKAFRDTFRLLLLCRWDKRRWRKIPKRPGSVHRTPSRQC
Experimental: as §1

[4] = test system: non-selective central muscarinic; test: Standard receptor screen at 10 μM: non-selective central muscarinic; type: binding; conditions: hydrochloride salt
Experimental: as §1

non-elective sigma = test: Standard receptor screen at 10 μM: sigma; type: binding; conditions: hydrochloride salt
Experimental: as §1

[5] = po, 50 mg Compound C (n = 4), read-out: Mean (SD) Terminal Elimination Half-life (converted)
[6] = po, 100 mg Compound C (n = 4), read-out: Mean (SD) Terminal Elimination Half-life (converted)
[7] = po, 400 mg Compound C (n = 4), read-out: Mean (SD) Terminal Elimination Half-life (converted)
[8] = SH-EP1/human a4b2 cells, FLIPR calcium, relative to 10 μM nicotine, read-out: Human α4β2 Emax (% of nic resp)

T1 sequence (P43681 29-627 limits assumed): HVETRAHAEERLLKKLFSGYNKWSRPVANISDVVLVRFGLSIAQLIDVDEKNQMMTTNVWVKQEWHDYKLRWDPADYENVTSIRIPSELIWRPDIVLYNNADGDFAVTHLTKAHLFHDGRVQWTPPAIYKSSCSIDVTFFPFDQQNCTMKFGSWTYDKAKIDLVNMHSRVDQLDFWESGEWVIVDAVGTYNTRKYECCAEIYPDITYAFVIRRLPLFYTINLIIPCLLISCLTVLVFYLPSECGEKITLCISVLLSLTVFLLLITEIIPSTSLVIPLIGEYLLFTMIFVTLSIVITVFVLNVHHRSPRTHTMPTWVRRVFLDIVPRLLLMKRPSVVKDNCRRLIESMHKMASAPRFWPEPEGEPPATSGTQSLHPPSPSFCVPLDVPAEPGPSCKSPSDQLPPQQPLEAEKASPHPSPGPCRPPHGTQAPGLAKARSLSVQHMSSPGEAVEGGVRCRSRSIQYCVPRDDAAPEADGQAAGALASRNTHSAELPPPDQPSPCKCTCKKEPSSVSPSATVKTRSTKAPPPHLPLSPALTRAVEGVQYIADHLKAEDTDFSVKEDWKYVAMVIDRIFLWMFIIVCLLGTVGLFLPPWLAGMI
T1 sequence (P17787 26-502): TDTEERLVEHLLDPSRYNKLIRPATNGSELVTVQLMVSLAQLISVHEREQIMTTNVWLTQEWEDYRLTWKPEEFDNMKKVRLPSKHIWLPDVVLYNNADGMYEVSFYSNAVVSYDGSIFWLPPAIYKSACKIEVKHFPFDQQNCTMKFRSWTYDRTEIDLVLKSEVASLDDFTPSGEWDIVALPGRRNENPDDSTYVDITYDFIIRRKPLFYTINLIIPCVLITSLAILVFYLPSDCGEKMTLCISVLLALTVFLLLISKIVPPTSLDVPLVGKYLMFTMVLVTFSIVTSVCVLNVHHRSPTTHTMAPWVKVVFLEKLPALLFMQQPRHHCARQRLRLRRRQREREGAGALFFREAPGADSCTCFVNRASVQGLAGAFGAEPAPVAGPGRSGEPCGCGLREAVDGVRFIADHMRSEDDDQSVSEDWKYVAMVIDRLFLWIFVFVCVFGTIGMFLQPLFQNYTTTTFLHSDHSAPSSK
Human α4β2, sequence (P43681 29-627 limits assumed): as the sequence (P43681 29-627 limits assumed) above
Human α4β2, sequence (P17787 26-502): as the sequence (P17787 26-502) above
Human Muscle, sequence (P02708 21-457): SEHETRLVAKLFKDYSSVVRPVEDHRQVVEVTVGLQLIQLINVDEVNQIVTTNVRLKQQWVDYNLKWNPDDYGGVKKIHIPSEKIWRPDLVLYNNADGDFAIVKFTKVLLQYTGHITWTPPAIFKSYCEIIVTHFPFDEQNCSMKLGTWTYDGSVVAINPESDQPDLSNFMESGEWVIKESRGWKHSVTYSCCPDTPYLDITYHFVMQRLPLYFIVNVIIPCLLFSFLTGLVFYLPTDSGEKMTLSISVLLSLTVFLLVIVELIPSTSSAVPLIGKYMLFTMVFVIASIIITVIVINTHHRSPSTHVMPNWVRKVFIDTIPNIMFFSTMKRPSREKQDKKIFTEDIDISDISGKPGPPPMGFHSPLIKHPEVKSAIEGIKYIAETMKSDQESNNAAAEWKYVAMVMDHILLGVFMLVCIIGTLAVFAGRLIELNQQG
Human Muscle, sequence (P11230 24-501 partner): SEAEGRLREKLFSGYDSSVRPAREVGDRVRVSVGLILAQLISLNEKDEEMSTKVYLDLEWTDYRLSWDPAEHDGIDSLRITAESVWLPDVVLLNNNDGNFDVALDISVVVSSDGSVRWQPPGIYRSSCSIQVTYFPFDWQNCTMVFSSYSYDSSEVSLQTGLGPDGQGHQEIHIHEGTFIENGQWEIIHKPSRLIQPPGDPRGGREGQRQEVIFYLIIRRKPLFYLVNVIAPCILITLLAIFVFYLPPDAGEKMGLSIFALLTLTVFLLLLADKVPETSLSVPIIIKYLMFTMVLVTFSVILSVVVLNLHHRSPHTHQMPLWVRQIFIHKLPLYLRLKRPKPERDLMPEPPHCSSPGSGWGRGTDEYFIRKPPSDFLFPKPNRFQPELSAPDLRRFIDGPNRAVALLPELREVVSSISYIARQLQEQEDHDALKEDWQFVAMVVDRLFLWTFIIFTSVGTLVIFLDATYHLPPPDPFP
Human Muscle, sequence (P07510 23-517): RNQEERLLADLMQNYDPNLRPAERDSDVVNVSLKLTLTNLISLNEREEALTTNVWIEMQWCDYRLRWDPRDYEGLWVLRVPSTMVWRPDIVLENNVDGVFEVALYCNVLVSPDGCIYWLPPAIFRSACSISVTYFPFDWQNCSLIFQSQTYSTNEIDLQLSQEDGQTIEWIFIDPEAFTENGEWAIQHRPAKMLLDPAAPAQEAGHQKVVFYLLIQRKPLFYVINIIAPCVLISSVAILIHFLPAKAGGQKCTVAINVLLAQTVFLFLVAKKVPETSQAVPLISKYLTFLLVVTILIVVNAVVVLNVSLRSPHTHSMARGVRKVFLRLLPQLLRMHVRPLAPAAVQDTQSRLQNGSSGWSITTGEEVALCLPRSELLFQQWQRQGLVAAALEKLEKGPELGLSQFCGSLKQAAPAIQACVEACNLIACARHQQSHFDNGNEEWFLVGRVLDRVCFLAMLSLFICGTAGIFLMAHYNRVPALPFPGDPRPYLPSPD
Human Muscle, sequence (Q07001 22-517): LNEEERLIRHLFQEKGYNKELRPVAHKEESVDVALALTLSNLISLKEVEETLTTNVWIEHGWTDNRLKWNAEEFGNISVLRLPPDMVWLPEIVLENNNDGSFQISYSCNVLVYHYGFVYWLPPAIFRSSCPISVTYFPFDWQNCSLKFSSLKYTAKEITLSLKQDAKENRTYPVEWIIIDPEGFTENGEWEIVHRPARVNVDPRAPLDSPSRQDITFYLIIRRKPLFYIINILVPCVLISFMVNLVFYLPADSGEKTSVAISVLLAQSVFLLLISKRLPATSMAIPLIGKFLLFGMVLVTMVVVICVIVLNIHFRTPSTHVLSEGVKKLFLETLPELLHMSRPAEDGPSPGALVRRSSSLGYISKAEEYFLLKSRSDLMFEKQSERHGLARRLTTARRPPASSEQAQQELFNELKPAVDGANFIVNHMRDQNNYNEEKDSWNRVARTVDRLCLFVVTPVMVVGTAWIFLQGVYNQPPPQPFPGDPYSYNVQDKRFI
Rat α4β2, sequence (P09483 31-630): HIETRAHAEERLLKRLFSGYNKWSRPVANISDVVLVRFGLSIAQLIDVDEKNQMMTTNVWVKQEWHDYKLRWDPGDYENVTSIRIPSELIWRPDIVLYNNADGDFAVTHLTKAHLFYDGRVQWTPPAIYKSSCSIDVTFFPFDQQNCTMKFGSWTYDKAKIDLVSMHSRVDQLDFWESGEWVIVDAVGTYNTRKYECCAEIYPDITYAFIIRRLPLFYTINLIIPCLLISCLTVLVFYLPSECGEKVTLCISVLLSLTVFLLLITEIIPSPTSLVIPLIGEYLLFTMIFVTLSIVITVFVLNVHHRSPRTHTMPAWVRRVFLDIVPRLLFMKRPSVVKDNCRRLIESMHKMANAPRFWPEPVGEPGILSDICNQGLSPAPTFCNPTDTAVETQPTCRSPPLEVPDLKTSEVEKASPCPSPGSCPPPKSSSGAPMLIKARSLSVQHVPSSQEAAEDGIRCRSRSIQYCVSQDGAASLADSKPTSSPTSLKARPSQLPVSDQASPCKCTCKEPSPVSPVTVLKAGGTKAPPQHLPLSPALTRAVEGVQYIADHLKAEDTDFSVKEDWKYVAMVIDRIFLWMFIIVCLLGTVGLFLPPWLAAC
Rat α4β2, sequence (P12390 25-500): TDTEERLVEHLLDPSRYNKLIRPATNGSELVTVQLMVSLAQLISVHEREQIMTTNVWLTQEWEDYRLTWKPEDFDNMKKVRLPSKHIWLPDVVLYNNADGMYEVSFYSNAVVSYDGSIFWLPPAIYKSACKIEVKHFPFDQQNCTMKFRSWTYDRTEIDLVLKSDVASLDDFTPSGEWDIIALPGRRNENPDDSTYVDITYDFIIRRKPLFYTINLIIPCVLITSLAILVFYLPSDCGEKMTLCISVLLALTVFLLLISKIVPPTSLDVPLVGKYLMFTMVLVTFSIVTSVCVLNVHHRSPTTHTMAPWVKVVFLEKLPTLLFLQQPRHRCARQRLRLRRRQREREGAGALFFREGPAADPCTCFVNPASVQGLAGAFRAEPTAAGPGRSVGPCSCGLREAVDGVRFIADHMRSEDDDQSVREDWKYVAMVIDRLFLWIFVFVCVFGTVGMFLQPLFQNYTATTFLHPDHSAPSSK
Rat α7, sequence (Q05941 23-502): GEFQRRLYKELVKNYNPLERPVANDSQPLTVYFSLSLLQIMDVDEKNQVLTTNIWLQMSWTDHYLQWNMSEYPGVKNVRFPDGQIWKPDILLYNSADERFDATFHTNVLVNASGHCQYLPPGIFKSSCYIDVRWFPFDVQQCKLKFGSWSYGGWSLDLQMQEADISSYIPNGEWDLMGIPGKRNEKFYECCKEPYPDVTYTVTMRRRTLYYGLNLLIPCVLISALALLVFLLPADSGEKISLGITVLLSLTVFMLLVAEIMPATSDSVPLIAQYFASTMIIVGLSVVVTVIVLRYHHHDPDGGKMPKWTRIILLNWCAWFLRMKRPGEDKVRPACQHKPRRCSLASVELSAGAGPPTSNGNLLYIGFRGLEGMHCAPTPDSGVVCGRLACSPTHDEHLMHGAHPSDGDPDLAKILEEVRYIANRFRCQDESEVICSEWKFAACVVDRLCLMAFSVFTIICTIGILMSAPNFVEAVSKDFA

| Compound | Efficacy in multiple validated animal models of depression and anxiety [1] | inhibition at nicotinic receptors (nicotinic) [% inhibition] | t1/2 (mean) ([2]; 50 mg Compound C (n = 4)) [h] | t1/2 (mean) ([2]; 100 mg Compound C (n = 4)) [h] | t1/2 (mean) ([2]; 400 mg Compound C (n = 4)) [h] | Cmax ([2]; po, 50 mg Compound C (n = 4)) [ng/mL] | Tmax ([2]; po, 50 mg Compound C (n = 4)) [h] | AUC(0-inf) ([2]; po, 50 mg Compound C (n = 4)) [ng·h/mL] | half-life [2, 5] [min] | Cmax ([2]; po, 100 mg Compound C (n = 4)) [ng/mL] | Tmax ([2]; po, 100 mg Compound C (n = 4)) [h] | AUC(0-inf) ([2]; po, 100 mg Compound C (n = 4)) [ng·h/mL] | half-life [2, 6] [min] | Cmax ([2]; po, 400 mg Compound C (n = 4)) [ng/mL] | Tmax ([2]; po, 400 mg Compound C (n = 4)) [h] | AUC(0-inf) ([2]; po, 400 mg Compound C (n = 4)) [ng·h/mL] | half-life [2, 7] [min] | share of total exposure (Cmax and AUCinf) compared to the racemate, Compound C [2] | Ki (Rat α7) [µM] | Human Ganglion SP (100 μM) (Human Ganglion) | other results |
| --- | --- | --- | --- | --- | --- | --- | --- | --- | --- | --- | --- | --- | --- | --- | --- | --- | --- | --- | --- | --- | --- |
| c1cncc(N2CC[C@]3(CCCN3)C2)c1 [Compound A, (R)-7-(3-pyridinyl)-1,7-diazaspiro[4.4]nonane] | demonstrated efficacy | 99 | 27.5 | 23.7 | 22.4 | 10.3 | 4.38 | 256 | 1650 | 22.7 | 3.25 | 451 | 1420 | 163 | 2 | 2420 | 1340 | approximately half | 5.4 | 3 | struggle intensity compared to saline (A/J mice): increased struggle intensity; total time immobile compared to saline (A/J mice): decreased total time immobile; half-life ([2]; oral, after Compound C 50, 100, 400 mg, read-out: terminal elimination half-life longer than that of Compound B (converted)): ~360 min; effect on seizure induction (rats; under the same conditions (as Compound B: acute oral dose of 300 mg/kg, male rats)): no effect on seizure induction; inhibition at 10 µM (histamine H1): 66%; Ki (Rat α4β2): 74 nM; Emax (human α4β2 NNRs; [8]): 9%; Emax (human α4β2 NNRs; SH-EP1, read-out: Emax at human α4β2 NNRs): 9%; EC50 (human α4β2 NNRs; read-out: EC50 at human α4β2 NNRs): 84 µM; Human Muscle SP (100 μM) (Human Muscle): 6; Activity in the EPM (rat): anxiolytic-like activity; Ki (Human α4β2): 40 nM |
| c1cncc(N2CC[C@@]3(CCCN3)C2)c1 [Compound B, (S)-7-(3-pyridinyl)-1,7-diazaspiro[4.4]nonane] | failed to demonstrate activity | 99 | 21.0 | 17.8 | 16.6 | 12.1 | 3.13 | 237 | 1260 | 24.6 | 2.75 | 364 | 1070 | 158 | 2 | 2130 | 996 | approximately half | > 10 | 18 | inhibition at non-selective peripheral muscarinic receptors [3]: 84 % inhibition; induced convulsion (animals affected) (rats; male rats, acute oral dose of 300 mg/kg): 1/6; inhibition at 10 µM (histamine H3): 58%; inhibition at 10 µM (muscarinic M1): 53%; inhibition at non-selective central muscarinic receptors [4]: 84 % inhibition; Ki (Rat α4β2): 82 nM; EC50 (human α4β2 NNRs; SH-EP1/human a4b2 cells, FLIPR calcium, read-out: Human α4β2 EC50): 3.9 µM; Emax (human α4β2 NNRs; [8]): 87%; Human Muscle SP (100 μM) (Human Muscle): <1; Ki (Human α4β2): 30 nM; inhibition at non-elective sigma receptors (non-elective sigma): 56 % inhibition |
